What is called inhibition is the share of the control response that was lost under treatment. As usually defined, the IC50 is the midpoint of a concentration-inhibition curve. As a reminder, the CC50 is the concentration giving 50% cytotoxicity.

Active and inactive are the calls of the source. No cut-off for these calls is given here.

Data set [1] relates to P21. Description: Inhibition of HPV-16 LCR transcriptional activity in human P21 cells at 30 uM after 24 hrs by luciferase reporter gene assay. The settings on record: Alphapapillomavirus 9. The class given is cell-based. (In a reporter assay the amount or activity of a reporter protein is the signal.)
The nature of data set [2]: (§1) Inhibition of HPV-16 LCR transcriptional activity in human P21 cells after 24 hrs by luciferase reporter gene assay. The settings on record: Alphapapillomavirus 9, P21, 24 h. The class given is cell-based.
Data set [3] has as its system P21. The description is as §1. To be noted: Alphapapillomavirus 9. The class given is cell-based.
The nature of data set [4]: Cytotoxicity against human P21 cells assessed as inhibition of cell viability after 24 hrs by CellTiter96 assay. The class given is cell-based.
Data set [5] in a line: Selectivity index, ratio of CC50 for human P21 cells to IC50 for HPV-16 LCR transcriptional activity in human P21 cells. It is filed as functional.
The nature of data set [6]: Cytotoxicity against human CaSki cells assessed as inhibition of cell proliferation at 10 uM after 24 hrs by CellTiter96 assay. The class given is cell-based. To be noted: ca-ski.
Data set [7] relates to P21. In words: Inhibition of HPV-16 LCR transcriptional activity in human P21 cells at 100 uM after 24 hrs by luciferase reporter gene assay. It is filed as cell-based. The settings on record: Alphapapillomavirus 9.
Data set [8] can be described thus: Drug uptake in human CaSki cells at 10 uM after 16 hrs by reverse-phase HPLC analysis. The class given is ADME, cell-based. To be noted: ca-ski.
The subject of data set [9] is Human immunodeficiency virus 1. In words: Antiviral activity against HIV-1 3B infected in human MT4 cells assessed as protection against virus-induced cytopathogenicity. The class given is functional, organism-based. For orientation: Cytopathic effects are the visible damage that an infection or toxin causes in cultured cells.
In data set [10] the test system is Rotavirus. Description: Antiviral activity against HRV infected in […] cells assessed as protection against virus-induced cytopathogenicity. It is filed as functional, organism-based.
Data set [11] has as its system Human orthopneumovirus. In words: Antiviral activity against RSV infected in human Hep2 cells assessed as protection against virus-induced cytopathogenicity. The class given is functional, organism-based. The settings on record: human respiratory syncytial virus; HEp-2.
Data set [12] relates to Human alphaherpesvirus 2. In words: Antiviral activity against HSV2 infected in african green monkey Vero cells assessed as protection against virus-induced cytopathogenicity. It is filed as functional, organism-based.
Data set [13] has as its system Vesicular stomatitis virus. Description: Antiviral activity against VSV infected in african green monkey Vero cells assessed as protection against virus-induced cytopathogenicity. It is filed as functional, organism-based.
The nature of data set [14]: Drug uptake in human CaSki cells at 10 uM after 1 hr by reverse-phase HPLC analysis. The class given is ADME, cell-based. The settings on record: ca-ski.
Data set [15] concerns Ca-Ski. Description: Inhibition of LCR-mediated E6 mRNA expression in HPV-16-positive human CaSki cells at 10 uM after 24 hrs by RT-PCR analysis. It is filed as cell-based. The settings on record: Alphapapillomavirus 9.
Data set [16] deals with Ca-Ski. Description: Inhibition of LCR-mediated E7 mRNA expression in HPV-16-positive human CaSki cells at 10 uM after 24 hrs by RT-PCR analysis. The class given is cell-based. To be noted: Alphapapillomavirus 9.

Take `CCOC(=O)c1cn(Cc2cccc(Cl)c2F)c2nc(N3CCN(c4ccccn4)CC3)ccc2c1=O`: the inhibition was 89.2% in [1], “Dose-dependent effect” in data set [3] and 93.1% in [7]. Besides, in [2], the IC50 was determined as 1.12 µM. In data set [4], the CC50 at 24 h is more than 100 µM. Moreover, the “Ratio CC50/IC50” value in data set [5] is given as more than 89.2. The Activity entry in data set [6] was “Non-toxic”.
For `CCOC(=O)c1cn(Cc2cccc(Cl)c2F)c2nc(N3CCN(c4nc5ccccc5s4)CC3)ccc2c1=O`, the inhibition in data set [1] came out at 82.8%; in data set [7], 94.9%. This compound returned an IC50 in [2] of 0.26 µM. Further, the Drug uptake in data set [8] is 15%; in data set [14] it was “Not Active”. In addition, the CC50 at 24 h in [4] was more than 100 µM. Further, the “Ratio CC50/IC50” value in [5] is reported as more than 385. In addition, in data set [6], the Activity entry was “Non-toxic”. Besides, the outcome in data set [9] and in data set [10] was inactive. Also, the outcome in data set [11], in data set [12] and in [13] was Active.
Turning to `CCOC(=O)c1cn(Cc2ccc(C(F)(F)F)cc2)c2nc(N3CCN(c4nc5ccccc5s4)CC3)ccc2c1=O`, the results for the inhibition in data set [1] and in data set [7] were 67.5% and 89.3%, respectively. In addition, in [2], half-maximal inhibition (IC50) required 10.9 µM. In addition, the CC50 at 24 h in [4] is 78.2 µM. Further, the “Ratio CC50/IC50” value in data set [5] came out at 7.16.
The like results for `CCOC(=O)c1cn(CCc2ccccn2)c2nc(N3CCN(c4nc5ccccc5s4)CC3)ccc2c1=O` were, in that order, 87%, 100%, 1.05 µM, 17.1 µM and 16.2.
As to `CCOC(=O)c1cn(Cc2ccccc2F)c2nc(N3CCN(c4nc5ccccc5s4)CC3)ccc2c1=O`, the inhibition is 88.6% in data set [1] and 75.6% in data set [7]. This compound also gave an IC50 in data set [2] of 4.18 µM. Also, the CC50 at 24 h in [4] was more than 100 µM. Besides, the “Ratio CC50/IC50” value in data set [5] is on record as more than 23.9.
With `CCOC(=O)c1cn(Cc2nc3ccccc3[nH]2)c2nc(N3CCN(c4nc5ccccc5s4)CC3)ccc2c1=O`, the inhibition turned out to be 38.3% in data set [1] and 45.5% in data set [7].
In the case of `CCOC(=O)c1cn(Cc2ccccn2)c2nc(N3CCN(c4nc5ccccc5s4)CC3)ccc2c1=O`, the inhibition in data set [1] was found to be 63.1%; in [7], 73.4%. The IC50 in data set [2] was found to be 5.3 µM. Besides, the CC50 at 24 h in data set [4] is 34.6 µM. Besides, in data set [5], the “Ratio CC50/IC50” value was 6.5.
With `CCOC(=O)c1cn(Cc2cccc(Cl)c2F)c2nc(N3CCN(c4nc5ccccc5o4)CC3)ccc2c1=O`, the inhibition in [1] was 88.1%; in data set [7], 83.9%. The compound also registered an IC50 in [2] of 0.39 µM. For the same compound, the CC50 at 24 h in data set [4] was more than 100 µM. In data set [5], the “Ratio CC50/IC50” value is more than 256.
Turning to `CCOC(=O)c1cn(Cc2cccc(Cl)c2F)c2nc(N3CCN(c4nccs4)CC3)ccc2c1=O`, the inhibition in data set [1] stood at 98%; in data set [15], 71.7%; in data set [16], 72.7%; in data set [7] it was 99.7%. This compound also yielded a 50% inhibitory concentration (IC50) in [2] of 1.21 µM. Further, the Drug uptake in [8] is 70%; in [14], “Not Active”. The CC50 at 24 h in data set [4] is 25.3 µM. Also, the “Ratio CC50/IC50” value in data set [5] was determined as 20.9. Besides, the Activity entry in [6] is given as “Non-toxic”.
Turning to `O=C(O)c1cn(Cc2ccccn2)c2nc(N3CCN(c4nc5ccccc5s4)CC3)ccc2c1=O`, the inhibition in data set [1] is 24%; in data set [7] it was 61%.
For the compound `CCOC(=O)c1cn(Cc2ccccc2)c2nc(N3CCN(c4nc5ccccc5s4)CC3)ccc2c1=O`, the inhibition turned out to be 98.2% in data set [1] and 98.1% in [7]. For the same compound, 0.23 µM corresponded to half-maximal inhibition in data set [2] (IC50). Moreover, in [4], the CC50 at 24 h is 61.7 µM. Moreover, the “Ratio CC50/IC50” value in [5] came to 268. In addition, in data set [6], the Activity result is “Non-toxic”.
For the compound `O=C(O)c1cn(Cc2cccc(Cl)c2F)c2nc(N3CCN(c4ccccn4)CC3)ccc2c1=O`, the inhibition in data set [1] was 30.5%; in [7], 25.8%. The Activity result in data set [6] was “Non-toxic”.
Regarding `O=C(O)c1cn(Cc2cccc(Cl)c2F)c2nc(N3CCN(c4nccs4)CC3)ccc2c1=O`, the inhibition was 7.39% in data set [1] and 2.1% in data set [7]. For the same compound, the Drug uptake in data set [8] turned out to be 63%; in [14], 20%. For the same compound, the Activity result in [6] is given as “Non-toxic”.
Consider `CCOC(=O)c1cn(Cc2cccc(Cl)c2)c2nc(N3CCN(c4nc5ccccc5s4)CC3)ccc2c1=O`, for which the inhibition in [1] and in data set [7] was 96% throughout. The compound also gave an IC50 in data set [2] of 2.62 µM. Further, the CC50 at 24 h in data set [4] was more than 100 µM. Besides, the “Ratio CC50/IC50” value in data set [5] is listed as more than 38.1. In addition, in [6], the Activity entry is given as “Non-toxic”.
Take `O=C(O)c1cn(Cc2cccc(Cl)c2F)c2nc(N3CCN(c4nc5ccccc5s4)CC3)ccc2c1=O`: the figures for the inhibition in [1] and in data set [7] were 38.3% and 56%, respectively. The Drug uptake came out at 35% in [8] and 20% in data set [14]. In data set [6], the Activity result is “Non-toxic”.
For `CCOC(=O)c1cn(Cc2ccc(Cl)cc2)c2nc(N3CCN(c4nc5ccccc5s4)CC3)ccc2c1=O`, the inhibition in data set [1] and in [7] was 90% in each case. In data set [2], this compound yielded an IC50 of 2.37 µM. The CC50 at 24 h in data set [4] is more than 100 µM. The “Ratio CC50/IC50” value in data set [5] is more than 42.1. The Activity entry in data set [6] was “Non-toxic”.
`O=C(O)c1cn(Cc2cccc(Cl)c2F)c2nc(N3CCN(c4ccc5ccccc5n4)CC3)ccc2c1=O`: the inhibition came to 99.3% in data set [1] and 100% in data set [7]. In [2], this compound had an IC50 of 2.86 µM. The Drug uptake in data set [8] amounted to 38%; in [14] it was 20%. The CC50 at 24 h in data set [4] is 17.6 µM. In addition, the “Ratio CC50/IC50” value in data set [5] is 6.1. In addition, the Activity entry in data set [6] is on record as “Non-toxic”.
`O=C(O)c1cn(Cc2ccccc2)c2nc(N3CCN(c4nc5ccccc5s4)CC3)ccc2c1=O`: the inhibition in data set [1] and in [7] was 100% in each case. Also, in [2], half-maximal inhibition (IC50) required 4.55 µM. In addition, the CC50 at 24 h in data set [4] turned out to be 69.6 µM. Further, the “Ratio CC50/IC50” value in [5] was determined as 15.2. Also, the Activity result in data set [6] is on record as “Non-toxic”.
In the case of `CCOC(=O)c1cn(Cc2ccc3[nH]ccc3c2)c2nc(N3CCN(c4nc5ccccc5s4)CC3)ccc2c1=O`, the inhibition worked out at 93.6% in [1] and 90.2% in data set [7]. In [2], the half-maximal inhibitory concentration (IC50) was 0.13 µM. In data set [4], the 50% cytotoxic concentration (CC50) at 24 h is more than 100 µM. For the same compound, the “Ratio CC50/IC50” value in data set [5] is listed as more than 769. Besides, the Activity entry in [6] is reported as “Non-toxic”.
Take `CCOC(=O)c1cn(Cc2cccc(Cl)c2F)c2nc(N3CCN(c4ccc5ccccc5n4)CC3)ccc2c1=O`: the inhibition in data set [1] was determined as 92.3%; in data set [15], 61.5%; in [16] it was 57.4%; in [7] it was 93.7%. Besides, the IC50 in data set [2] came out at 0.21 µM. The Drug uptake is reported as 40% in [8] and “Not Active” in [14]. Further, the 50% cytotoxic concentration (CC50) at 24 h in data set [4] was 59.3 µM. Further, the “Ratio CC50/IC50” value in data set [5] turned out to be 282. In addition, in data set [6], the Activity entry is given as “Non-toxic”.
Consider `CCOC(=O)c1cn(CCc2ccc(Cl)cc2)c2nc(N3CCN(c4nc5ccccc5s4)CC3)ccc2c1=O`, for which the figures for the inhibition in [1] and in [7] were 49.6% and 50.4%, respectively.
The matching figures for `O=C(O)c1cn(CCc2ccccn2)c2nc(N3CCN(c4nc5ccccc5s4)CC3)ccc2c1=O`: 0% and 0%.

The record behind these values is ChEMBL document CHEMBL3297723, “Ethyl 1,8-naphthyridone-3-carboxylates downregulate human papillomavirus-16 E6 and E7 oncogene expression” (J Med Chem, 2014).
